Data: US11021526B2, “DSG2-derived peptides” (Asclepiumm Taiwan Co., Ltd, priority 2016, dated 2021)
Entries after “also recorded” stand apart in the source; their conditions may differ. Where a SMILES comes first, the peptide text is derived from it.

What was measured:
MDCK cells = assay: EMT assay (HGF-induced EMT, inter-nuclear distance); conditions: HGF 2.5 ng/ml
Method: MDCK cells (800 cells/well) were seeded onto 96-well plate and incubated in 37° C. and 5% CO2 to become 10% sub-confluence. Then EMT was triggered by adding culture medium with cell scattering factor HGF (R&D system, 2.5 ng/ml) and tested peptides were added (SEQ2˜SEQ31) to block EMT. To measure the inter-nuclear distance, random images were captured at ×50 magnification using an upright microscope. The inter-nuclear distance was measured from the center of one nucleus to that of a neighboring/adjacent nucleus. The distance between the two nuclei was measured by using ImageJ software.

[1] = tested on: human umbilical vein endothelial cells (HUVEC); assay: HUVEC tube formation assay (angiogenesis assay); format: cell-based; conditions: for collapse of volume of tube structure compared to PBS-treated control: matrigel induced vasculature of HUVEC cells, PBS-dissolved peptides; for inhibition of angiogenesis / HUVEC tube structure: HUVEC on Matrigel, five-hour incubation
Excerpt: Overnight starved human umbilical vein endothelial cells (HUVEC) were collected and adjusted to 1.5×10^4 cells/well (in a 96-well plate) with endothelial cell growth medium and then seeded cells on the matrigel-coated well. Different peptides and their modified forms by D-form non-nature amino acids and/or cyclization by adding N- and C-terminal Cystines; also SEQ132 is a reversal of the direction of the peptide backbone SEQ6 (retro modification): (SEQ17, SEQ78, SEQ97, MR9 DF, CMR9C, CMR9C DF, MR9D6 DF, CMR9D6C DF and SEQ132) or control PBS were added into well for five-hour incubation at 37° C. Each well was photographed at ×40 magnification through an upright microscope. Total tube lengths were quantified by using ImageJ software.

[2] = tested on: rat eyes choroidal neovascularization; assay: Rat laser-induced choroidal neovascularization model; format: in vivo; conditions: injected into vitreous body, 14 days after laser; Eylea 200 μg/5 μl, SEQ97 500 μg/5 μl; n=10
Method: The animals were fully anesthetized with a mixture of ketamine hydrochloride/xylazine hydrochloride (7:1, v/v) by intramuscular injection into the thigh muscle at 1 mL/kg. Mydrin®-P ophthalmic solution (Santen Pharmaceutical Co., Ltd.) was instilled into the eyes to dilate the pupils. Laser (wavelength: 532 nm) was used to irradiate the right eye of each animal using a Slit Lamp SL-130 (Carl Zeiss Meditec AG) and a Multicolor Laser Photocoagulator MC-300 (NIDEK Co., Ltd.). Then the peptide dosing formulation was injected into the vitreous body of the right eye using a microsyringe (MS-N10, Ito Corporation) and a 33 G needle (Ito Corporation). Fourteen days after laser irradiation, a 4% FITC-dextran solution was administered into the tail vein in a volume of 1 mL/animal. Then the animals were euthanized by overdose of an anesthetic. The eyeballs were removed and fixed in 4% paraformaldehyde-phosphate buffer for 12-24 hours. Choroidal flat mounts were prepared under a stereoscopic microscope (EZ-4, Leica Microsystems). […]
Eyes of rats were irradiated by 532 nm wave length laser and intraveally treated with peptides (SEQ97), Eylea or PBS. […] After treatment (PBS, Eylea or SEQ97) for 14 days, the photographs of the choroidal neovascularization sites were taken and quantified with ImageJ software. […]

Row | Molecule | inhibition of HGF (hepatocyte growth factor) induced EMT (epithelial-mesenchymal transition) (MDCK cells) | inhibition of angiogenesis / HUVEC tube structure [1] | also measured
1 | CC[C@H](C)[C@H](NC(=O)[C@@H](NC(=O)[C@H](CO)NC(=O)[C@H](Cc1ccccc1)NC(=O)[C@@H](N)CO)C(C)C)C(=O)N[C@@H](CC(=O)O)C(=O)N[C@@H](CCCCN)C(=O)N1CCC[C@H]1C(=O)N1CCC[C@H]1C(=O)NCC(=O)N[C@@H](CCSC)C(=O)N[C@@H](C)C(=O)N[C@@H](CCC(=O)O)C(=O)N[C@@H](CCCCN)C(=O)N[C@@H](Cc1c[nH]c2ccccc12)C(=O)O [SEQ5, SFSVIDKPPGMAEKW] (H-SFSVIDKPPGMAEKW-OH; N-terminus and C-terminus assumed) | inhibited |  | 
2 | CC[C@H](C)[C@H](NC(=O)[C@H](CC(C)C)NC(=O)[C@H](Cc1ccccc1)NC(=O)[C@H](CCC(N)=O)NC(=O)[C@@H](NC(=O)[C@H](CCC(=O)O)NC(=O)[C@H](CO)NC(=O)[C@H](CCCNC(=N)N)NC(=O)CNC(=O)[C@H](CC(C)C)NC(=O)[C@H](CCCCN)NC(=O)[C@H](CCCCN)NC(=O)[C@@H](N)CCC(=O)O)[C@@H](C)CC)C(=O)N[C@@H](CO)C(=O)N[C@@H](CC(=O)O)C(=O)O [SEQ8, EKKLGRSEIQFLISD] (H-EKKLGRSEIQFLISD-OH; N-terminus and C-terminus assumed) | inhibited |  | 
3 | CC[C@H](C)[C@H](NC(=O)[C@H](CCCCN)NC(=O)[C@H](Cc1c[nH]c2ccccc12)NC(=O)[C@H](CCCCN)NC(=O)[C@H](CCC(=O)O)NC(=O)[C@H](C)NC(=O)[C@@H](N)CCSC)C(=O)N[C@@H](C)C(=O)N[C@@H](CCCNC(=N)N)C(=O)N[C@@H](CCC(N)=O)C(=O)N[C@@H](CCC(=O)O)C(=O)O [SEQ15, MAEKWKIARQE] (H-MAEKWKIARQE-OH; N-terminus and C-terminus assumed) | excellent inhibiting abilities similar to SEQ6 |  | 
4 | CC[C@H](C)[C@H](NC(=O)[C@H](CCCCN)NC(=O)[C@H](Cc1c[nH]c2ccccc12)NC(=O)[C@H](CCCCN)NC(=O)[C@H](CCC(=O)O)NC(=O)[C@H](C)NC(=O)[C@@H](N)CCSC)C(=O)N[C@@H](C)C(=O)N[C@@H](CCCNC(=N)N)C(=O)O [SEQ17, MAEKWKIAR] (H-MAEKWKIAR-OH; N-terminus and C-terminus assumed) | advantageous effect in the inhibition of EMT; also recorded: excellent inhibiting abilities similar to SEQ6 |  | 
5 | CMAEKWKIARDDDDDDC [CMR9D6C DF] |  |  | collapse of volume of tube structure compared to PBS-treated control [1]: 95%
6 | Eylea: Eylea, comparator treatment (200 μg/5 μl) in the rat choroidal neovascularization model [reference compound] |  |  | inhibition of rat eyes choroidal neovascularization [2]: significantly inhibit
7 | MAEKWKIARDDDDDD [MR9D6 DF] |  |  | collapse of volume of tube structure compared to PBS-treated control [1]: 95%
8 | MAEKWKIARDDDDDD [SEQ97] |  | inhibit angiogenesis | inhibition of rat eyes choroidal neovascularization [2]: significantly inhibit
9 | RRRRRRRMAEKWKIAR [SEQ78] |  | inhibit angiogenesis | 
10 | VSTSEQRAIKWKEAM [SEQ132] |  | strong efficacy to inhibit HUVEC tube structure | 
